From patent US5668152A, “Protein kinase C inhibitors” (priority 1995, dated 1997)
Read-outs that look alike come from different tables or passages of the source.

Legend:
[1] = molecular target: protein kinase C delta (Homo sapiens, UniProt Q05655); assay: biochemical
Method: (§1) PKC enzymes=alpha, beta I, beta II, gamma, delta, epsilon, eta and zeta.
(§2) Assay components in a total volume of 250 μL are the following:
(§3) Vesicles consisting of 120 μg/mL phosphatidylserine (Avanti Polar Lipids) and sufficient diacylglycerol (Avanti Polar Lipids) to activate the enzyme to maximum activity in 20 mM HEPES buffer (Sigma, St. Louis, Mo.), pH 7.5, 940 μM calcium chloride (Sigma, St. Louis, Mo.) for assaying the alpha, beta I, beta II and gamma enzyme only, 1 mM EGTA for all the enzymes, 10 mM magnesium chloride (Sigma, St. Louis, Mo.) and 30 μM (gamma-32P) ATP (DuPont). For all the enzymes either histone type HL (Worthington) or myelin basic protein is used as substrate. The assay is started by addition of protein kinase C enzyme incubated at 30° C. for 10 minutes and stopped by adding 0.5 mL of cold trichloroacetic acid (Amresco) followed by 100 μL of 1 mg/mL bovine serum albumin (Sigma, St. Louis, Mo.). The precipitate is collected by vacuum filtration on glass fiber filters employing a TOMTEC™ filtration system and quantified by counting in a beta scintillation counter.

[2] = molecular target: protein kinase C gamma (Homo sapiens, UniProt P05129); assay: PKC Enzyme assay, gamma isozyme; type: biochemical
Method: as §1, §2, §3

[3] = molecular target: protein kinase C alpha (Homo sapiens, UniProt P17252); assay: PKC Enzyme assay, alpha isozyme; type: biochemical
Method: as §1, §2, §3

[4] = molecular target: protein kinase C eta (Homo sapiens, UniProt P24723); assay: PKC Enzyme assay, eta isozyme; type: biochemical
Sequence of protein kinase C eta (P24723 whole entry): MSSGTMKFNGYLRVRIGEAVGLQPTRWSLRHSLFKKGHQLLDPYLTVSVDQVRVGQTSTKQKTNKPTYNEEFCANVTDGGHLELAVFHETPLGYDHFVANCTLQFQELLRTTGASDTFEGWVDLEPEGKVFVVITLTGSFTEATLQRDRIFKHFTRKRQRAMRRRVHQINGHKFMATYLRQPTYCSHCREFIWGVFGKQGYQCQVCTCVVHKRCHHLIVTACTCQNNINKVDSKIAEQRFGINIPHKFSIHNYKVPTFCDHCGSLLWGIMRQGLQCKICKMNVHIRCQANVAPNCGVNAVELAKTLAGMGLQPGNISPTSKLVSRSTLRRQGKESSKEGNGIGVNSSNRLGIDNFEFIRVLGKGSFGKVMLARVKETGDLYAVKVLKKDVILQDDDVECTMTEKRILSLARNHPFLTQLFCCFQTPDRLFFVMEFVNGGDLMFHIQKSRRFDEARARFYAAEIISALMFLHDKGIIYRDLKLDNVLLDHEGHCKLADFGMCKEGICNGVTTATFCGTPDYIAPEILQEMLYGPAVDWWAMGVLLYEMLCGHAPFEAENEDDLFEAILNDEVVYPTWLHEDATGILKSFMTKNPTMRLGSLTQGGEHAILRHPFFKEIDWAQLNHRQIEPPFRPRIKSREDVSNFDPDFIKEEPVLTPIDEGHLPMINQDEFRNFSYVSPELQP
Method: as §1, §2, §3

[5] = molecular target: T1, protein kinase C epsilon (Homo sapiens, UniProt Q02156); assay: PKC Enzyme assay, epsilon isozyme; type: biochemical
T1 sequence (Q02156 1-737): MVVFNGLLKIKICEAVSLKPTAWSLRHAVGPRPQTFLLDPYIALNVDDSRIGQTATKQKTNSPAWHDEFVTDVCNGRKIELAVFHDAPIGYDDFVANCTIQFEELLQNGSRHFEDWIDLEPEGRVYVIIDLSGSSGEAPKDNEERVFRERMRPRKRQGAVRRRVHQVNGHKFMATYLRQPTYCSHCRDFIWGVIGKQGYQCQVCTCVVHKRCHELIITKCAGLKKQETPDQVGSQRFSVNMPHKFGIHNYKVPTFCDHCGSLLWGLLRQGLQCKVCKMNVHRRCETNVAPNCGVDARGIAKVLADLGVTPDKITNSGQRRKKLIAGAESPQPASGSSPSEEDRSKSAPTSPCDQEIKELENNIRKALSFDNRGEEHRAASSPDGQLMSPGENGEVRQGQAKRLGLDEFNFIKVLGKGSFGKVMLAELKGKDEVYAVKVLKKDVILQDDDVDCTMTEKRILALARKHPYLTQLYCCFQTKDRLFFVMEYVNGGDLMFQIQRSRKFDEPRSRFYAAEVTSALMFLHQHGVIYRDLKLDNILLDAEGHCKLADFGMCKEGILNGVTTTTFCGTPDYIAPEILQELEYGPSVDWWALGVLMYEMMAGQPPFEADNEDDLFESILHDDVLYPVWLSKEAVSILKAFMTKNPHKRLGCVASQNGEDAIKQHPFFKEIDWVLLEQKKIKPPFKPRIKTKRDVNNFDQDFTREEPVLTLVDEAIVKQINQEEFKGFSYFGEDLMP
Method: as §1, §2, §3

[6] = molecular target: protein kinase C beta-2 (Homo sapiens, UniProt P05771); assay: PKC Enzyme assay, beta II isozyme; type: biochemical
Sequence of protein kinase C beta-2 (P05771 1-673 isoform P05771-2): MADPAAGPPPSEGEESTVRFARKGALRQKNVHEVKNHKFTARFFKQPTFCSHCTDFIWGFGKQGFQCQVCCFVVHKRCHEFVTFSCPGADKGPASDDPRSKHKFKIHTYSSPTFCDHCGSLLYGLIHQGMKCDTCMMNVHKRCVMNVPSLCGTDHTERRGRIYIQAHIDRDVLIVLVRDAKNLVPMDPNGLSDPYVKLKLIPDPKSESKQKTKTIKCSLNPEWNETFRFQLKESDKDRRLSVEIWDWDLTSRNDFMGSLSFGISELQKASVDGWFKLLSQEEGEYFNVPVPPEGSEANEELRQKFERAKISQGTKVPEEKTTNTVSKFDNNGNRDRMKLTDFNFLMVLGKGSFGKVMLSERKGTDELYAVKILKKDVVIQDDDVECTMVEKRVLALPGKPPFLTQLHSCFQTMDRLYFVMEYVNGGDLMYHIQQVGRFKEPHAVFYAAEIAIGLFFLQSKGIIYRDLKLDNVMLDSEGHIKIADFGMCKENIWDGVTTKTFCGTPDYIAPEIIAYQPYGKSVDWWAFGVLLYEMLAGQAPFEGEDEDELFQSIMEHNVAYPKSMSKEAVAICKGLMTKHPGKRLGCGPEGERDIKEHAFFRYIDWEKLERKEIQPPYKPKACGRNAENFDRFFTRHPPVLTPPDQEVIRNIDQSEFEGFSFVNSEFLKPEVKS
Method: as §1, §2, §3

[7] = molecular target: T2, protein kinase C zeta (Homo sapiens, UniProt Q05513); assay: PKC Enzyme assay, zeta isozyme; type: biochemical; conditions: PKC zeta; 30 μM ATP, 30° C., 10 minutes; read-out: IC50 ζ
T2 sequence (Q05513 1-592): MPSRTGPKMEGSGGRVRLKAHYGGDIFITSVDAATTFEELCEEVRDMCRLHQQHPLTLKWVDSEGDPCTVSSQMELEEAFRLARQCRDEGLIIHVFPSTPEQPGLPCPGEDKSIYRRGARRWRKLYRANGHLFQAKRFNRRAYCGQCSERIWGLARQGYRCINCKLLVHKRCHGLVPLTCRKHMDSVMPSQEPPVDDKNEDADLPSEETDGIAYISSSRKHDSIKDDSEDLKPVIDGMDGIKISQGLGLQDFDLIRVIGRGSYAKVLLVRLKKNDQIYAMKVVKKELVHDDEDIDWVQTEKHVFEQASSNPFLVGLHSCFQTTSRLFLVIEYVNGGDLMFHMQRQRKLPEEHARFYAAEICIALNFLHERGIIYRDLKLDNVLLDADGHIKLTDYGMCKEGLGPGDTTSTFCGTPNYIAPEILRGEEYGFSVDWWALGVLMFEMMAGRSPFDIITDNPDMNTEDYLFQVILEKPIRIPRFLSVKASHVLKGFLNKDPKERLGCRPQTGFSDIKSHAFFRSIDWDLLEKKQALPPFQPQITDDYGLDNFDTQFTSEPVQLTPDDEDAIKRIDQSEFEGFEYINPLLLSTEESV
Method: as §1, §2, §3

[8] = molecular target: protein kinase C beta-1 (Homo sapiens, UniProt P05771); assay: PKC Enzyme assay, beta I isozyme; type: biochemical
Sequence of protein kinase C beta-1 (P05771 whole entry): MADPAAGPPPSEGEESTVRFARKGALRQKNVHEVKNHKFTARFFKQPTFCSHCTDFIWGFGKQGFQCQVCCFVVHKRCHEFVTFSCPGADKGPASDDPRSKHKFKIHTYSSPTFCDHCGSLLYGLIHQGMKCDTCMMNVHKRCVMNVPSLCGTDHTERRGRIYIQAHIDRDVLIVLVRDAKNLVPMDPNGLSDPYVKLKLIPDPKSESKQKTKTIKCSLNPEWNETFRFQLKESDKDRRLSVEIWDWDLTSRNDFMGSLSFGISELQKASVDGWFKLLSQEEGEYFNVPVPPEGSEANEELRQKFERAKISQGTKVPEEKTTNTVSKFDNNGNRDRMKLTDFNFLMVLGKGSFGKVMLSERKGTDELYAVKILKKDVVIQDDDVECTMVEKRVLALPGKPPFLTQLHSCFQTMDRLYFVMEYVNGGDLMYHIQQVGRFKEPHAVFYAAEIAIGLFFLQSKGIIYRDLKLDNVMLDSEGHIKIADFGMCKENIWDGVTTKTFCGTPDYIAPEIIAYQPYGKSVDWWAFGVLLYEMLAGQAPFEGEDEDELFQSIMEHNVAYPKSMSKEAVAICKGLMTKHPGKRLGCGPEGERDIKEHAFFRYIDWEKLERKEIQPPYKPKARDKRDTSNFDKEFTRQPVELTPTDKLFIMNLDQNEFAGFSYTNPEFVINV
Method: as §1, §2, §3

[9] = PKC delta, 30 μM ATP, 30° C., 10 minutes, read-out: IC50 δ
[10] = PKC gamma, 30 μM ATP, 30° C., 10 minutes, read-out: IC50 γ
[11] = PKC alpha, 30 μM ATP, 30° C., 10 minutes, read-out: IC50 α
[12] = PKC eta, 30 μM ATP, 30° C., 10 minutes, read-out: IC50 η
[13] = PKC epsilon, 30 μM ATP, 30° C., 10 minutes, read-out: IC50 ε
[14] = PKC beta-2, 30 μM ATP, 30° C., 10 minutes, read-out: IC50 β2
[15] = PKC beta-1, 30 μM ATP, 30° C., 10 minutes, read-out: IC50 β1

Sequence of protein kinase C delta (Q05655 whole entry): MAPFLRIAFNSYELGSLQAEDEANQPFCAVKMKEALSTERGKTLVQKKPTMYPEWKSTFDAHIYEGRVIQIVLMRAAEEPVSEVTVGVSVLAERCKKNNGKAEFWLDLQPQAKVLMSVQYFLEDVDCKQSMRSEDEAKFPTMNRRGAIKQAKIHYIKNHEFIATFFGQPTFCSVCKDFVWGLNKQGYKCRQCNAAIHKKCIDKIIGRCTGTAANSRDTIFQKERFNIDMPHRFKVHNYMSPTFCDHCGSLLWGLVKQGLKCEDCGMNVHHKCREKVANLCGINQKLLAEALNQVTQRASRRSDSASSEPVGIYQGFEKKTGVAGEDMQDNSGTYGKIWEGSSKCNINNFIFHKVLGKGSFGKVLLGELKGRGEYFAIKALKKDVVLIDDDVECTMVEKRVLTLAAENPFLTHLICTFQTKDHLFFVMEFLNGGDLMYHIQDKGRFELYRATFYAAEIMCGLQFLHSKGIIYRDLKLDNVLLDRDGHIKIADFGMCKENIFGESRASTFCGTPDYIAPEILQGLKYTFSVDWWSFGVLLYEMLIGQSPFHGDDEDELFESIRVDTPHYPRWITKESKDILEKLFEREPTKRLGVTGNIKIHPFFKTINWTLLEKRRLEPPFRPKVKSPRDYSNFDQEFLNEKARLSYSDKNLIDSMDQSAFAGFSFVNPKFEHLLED

| SMILES | IC50 [1, 9] [nM] | IC50 [2, 10] [nM] | IC50 [3, 11] [nM] | IC50 [4, 12] [nM] | IC50 [5, 13] [nM] | IC50 [6, 14] [nM] | IC50 [7] [nM] | IC50 [8, 15] [nM] | IC50 [1] [nM] | IC50 [2] [nM] | IC50 [3] [nM] | IC50 [4] [nM] | IC50 [5] [nM] | IC50 [6] [nM] | IC50 [8] [nM] |
| --- | --- | --- | --- | --- | --- | --- | --- | --- | --- | --- | --- | --- | --- | --- | --- |
| CC(=O)OCC1(COC(C)=O)CCn2c(c(C3=C(c4cn(C)c5ccccc45)C(=O)NC3=O)c3ccccc32)C1 [Example 1, 3-[8,8-bis(acetoxymethylene)-6,7,8,9-tetrahydropyrido[1,2-a]indol-10-yl]-4-(1-methyl-3-indolyl)-1H-pyrrole-2,5-dione] | 47000 | 38000 | 9800 | 121000 | 150000 | 300 | 50000 | 360 |  |  |  |  |  |  |  |
| Cn1cc(C2=C(c3c4n(c5ccccc35)CCC(CO)(CO)C4)C(=O)NC2=O)c2ccccc21 [Example 2, 3-[8,8-bis(hydroxymethylene)-6,7,8,9-tetrahydropyrido[1,2-a]indol-10-yl]-4-(1-methyl-3-indolyl)-1H-pyrrole-2,5-dione] | 6800 | 8800 | 3500 | 5700 | 31800 | 60 | 33000 | 70 |  |  |  |  |  |  |  |
| CC(=O)NC[C@H]1O[C@H](OCCn2cc(C3=C(c4cn(C)c5ccccc45)C(=O)NC3=O)c3ccccc32)C[C@@H]1O [Example 3] | 410 | 4400 | 320 | 1100 | 600 | 25 | 46000 | 36 |  |  |  |  |  |  |  |
| Cn1cc(C2=C(c3cn(C4CCN(Cc5ccccc5)CC4)c4ccccc34)C(=O)NC2=O)c2ccccc21 [Example 4, 3-(1-[4-(1-benzyl)-piperidinyl]-3-indolyl)-4-(1-methyl-3-indolyl)-1H-pyrrole-2,5-dione] | 6000 | 7000 | 6000 | 500 | 4000 | 30 |  | 50 |  |  |  |  |  |  |  |
| Cn1cc(C2=C(c3cn(C4CCN(C(=NC(=O)OC(C)(C)C)NC(=O)OC(C)(C)C)CC4)c4ccccc34)C(=O)NC2=O)c2ccccc21 [Example 5, [t-Butoxycarbonylimino-(4-{3-[4-(1-methyl-1H-indol-3-yl)-2,5-dioxo-2,5-dihydro-1H-pyrrole-3-yl]-indol-1-yl}-piperidin-1-yl)-methyl]-carbamic acid t-butyl ester] | 470 | 500 | 370 | 150 | 2600 | 29 | 42000 | 44 |  |  |  |  |  |  |  |
| Cn1cc(C2=C(c3cn(C4CCN(C(=O)OC(C)(C)C)CC4)c4ccccc34)C(=O)NC2=O)c2ccccc21 [Example 6, 3-(1-[4-(1-t-butoxycarbonyl)-piperidinyl]-3-indolyl)-4-(1-methyl-3-indolyl)-1H-pyrrole-2,5-dione] |  |  |  |  |  |  |  |  | 7300 | 5300 | 6100 | 300 | 4400 | 82 | 220 |
| CC(C)(C)OC(=O)N1CCC(n2cc(C3=C(c4c[nH]c5ccccc45)C(=O)NC3=O)c3ccccc32)CC1 [Example 7] | 4100 | 2800 | 3300 | 6200 | 6300 | 100 | 31000 | 230 |  |  |  |  |  |  |  |
| CN(C)CCCn1cc(C2=C(c3cn(C)c4ccccc34)C(=O)NC2=O)c2ccccc21 [Example 13] | 930 | 1700 |  | 470 | 3600 |  | 25000 |  |  |  |  |  |  | 60 | 140 |
| CCN1CCC(n2cc(C3=C(c4cn(C)c5ccccc45)C(=O)NC3=O)c3ccccc32)CC1 [Example 40, 3-[1-(1-Ethyl-piperidin-4-yl)-indol-3-yl]-4-(1-methyl-indol-3-yl)-pyrrole-2,5-dione] | 300 | 300 | 400 | 40 | 400 | 5 |  | 20 |  |  |  |  |  |  |  |
| Cn1cc(C2=C(c3cn(C4CCN(Cc5ccccn5)CC4)c4ccccc34)C(=O)NC2=O)c2ccccc21 [Example 49] |  | 2000 |  |  | 300 |  | 8000 |  |  |  |  |  |  |  |  |
| Cn1cc(C2=C(c3cn(C4CCNCC4)c4ccccc34)C(=O)NC2=O)c2ccccc21 [Example 52] |  |  |  | 200 | 1000 |  | 4000 |  |  |  |  |  |  |  |  |
| Cn1cc(C2=C(c3cn(CCO[C@@H]4O[C@H](CN=[N+]=[N-])[C@H](O)[C@H](O)[C@H]4O)c4ccccc34)C(=O)NC2=O)c2ccccc21 [Example 57] | 9000 |  | 10000 | 4000 | > 100000 | 360 | > 100000 | 1600 |  |  |  |  |  |  |  |
| Cn1cc(C2=C(c3cn(CCO[C@H]4O[C@H](CN)[C@H](O)[C@H](O)[C@H]4O)c4ccccc34)C(=O)NC2=O)c2ccccc21 [Example 65] | 8400 | 30000 | 8100 | 3400 |  |  | 47000 | 390 |  |  |  |  |  |  |  |
| Cn1cc(C2=C(c3cn(CCOC4OC(CN)C(O)C(O)C4O)c4ccccc34)C(=O)NC2=O)c2ccccc21 (stereo not drawn) [Example 66] | 4400 | 30000 | 9000 | 3000 |  |  | 37000 | 240 |  |  |  |  |  |  |  |
